Experimental data published in BindingDB's records for doi:10.1021/jm00028a001 (University of Pennsylvania, 1994).

Target: T1, Dimer of Gag-Pol polyprotein [489-587] (Human immunodeficiency virus 1, UniProt P12497)
T1 construct: 489-587
Assay: Protease Inhibition Assay
Conditions: pH 5.5; 30 °C
Description: Sensitivity of HIV-1 protease activity to protease inhibitors was determined by a peptide substrate cleavage assay. Protease products were analyzed on a reverse-phase high-pressure liquid chromatograph.

Point of comparison: `CC(C)C[C@@]1(C2C=N[C@@](Cc3ccccc3)(C[C@H](O)[C@H](Cc3ccccc3)NC(=O)O[C@@H]3CCOC3)C2=O)N=CC([C@@H](Cc2ccccc2)C(N)=O)C1=O` (stereo partly drawn) [(3R)-oxolan-3-yl N-[(2S,3S)-4-[(2S)-2-benzyl-4-[(2S)-4-[(1R)-1-carbamoyl-2-phenylethyl]-2-(2-methylpropyl)-3-oxo-2,3-dihydro-1H-pyrrol-2-yl]-3-oxo-2,3-dihydro-1H-pyrrol-2-yl]-3-hydroxy-1-phenylbutan-2-yl]carbamate], IC50 1.3 nM. Against it:
- CCC(C)[C@@H]1NC(=O)[C@@H](NC[C@@H](O)[C@H](Cc2ccc(O)cc2)NC(=O)[C@H](C(C)C)N2CCCC2=O)Cc2ccc(cc2)OCCCNC1=O (stereo partly drawn) [(2S)-N-[(2S,3R)-4-{[(8S,11S)-8-[(2R)-butan-2-yl]-7,10-dioxo-2-oxa-6,9-diazabicyclo[11.2.2]heptadeca-1(15),13,16-trien-11-yl]amino}-3-hydroxy-1-(4-hydroxyphenyl)butan-2-yl]-3-methyl-2-(2-oxopyrrolidin-1-yl)butanamide] — 7.7-fold higher, 10 nM
- CC(C)(C)NC(=O)[C@@H]1CCCCN1C[C@@H](O)[C@@H]1Cc2ccc(cc2)OCCCC(=O)N[C@@H](CC(N)=O)C(=O)N1 [Peptidomimetic inhibitor 4] — 2.2-fold lower, 0.6 nM
